#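 Following 48 hours of exposure in 96-well plates, responses at five concentrations were used to interpolate endpoints linearly. The concentration for 50% growth inhibition is given as GI50.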 Active and inactive are the calls of the source. No stated cut-off is given here; in the data, active = GI50 up to about 1.1 µM and inactive = higher.
# Tests used:
# Test in all cases: DTP human tumour cell line panel, 48 h
# UACC-62 = system: UACC-62
# MDA-N = system: MDA-N
# 786-0 = system: 786-0
# UACC-257 = system: UACC-257
# MCF7 = system: MCF7
# SW-620 = system: SW-620
# IGROV-1 = system: IGROV-1
# OVCAR-3 = system: OVCAR-3
# T47D = system: T47D
# OVCAR-8 = system: OVCAR-8
# EKVX = system: EKVX
# TK-10 = system: TK-10
# MDA-MB-435 = system: MDA-MB-435
# OVCAR-4 = system: OVCAR-4
# SK-OV-3 = system: SK-OV-3
# SNB-75 = system: SNB-75
# Malme-3M = system: Malme-3M
# HOP-62 = system: HOP-62
# COLO 205 = system: COLO 205
# SK-MEL-5 = system: SK-MEL-5
Structure (SMILES),GI50 (UACC-62),GI50 (MDA-N),GI50 (786-0),GI50 (UACC-257),GI50 (MCF7),GI50 (SW-620),GI50 (IGROV-1),GI50 (OVCAR-3),GI50 (T47D),GI50 (OVCAR-8),GI50 (EKVX),GI50 (TK-10),GI50 (MDA-MB-435),GI50 (OVCAR-4),GI50 (SK-OV-3),GI50 (SNB-75),GI50 (Malme-3M),GI50 (HOP-62),GI50 (COLO 205),GI50 (SK-MEL-5)
CCOC(=O)Nc1cc2ccccc2c(/N=N/c2ccccc2)c1O,> 100 µM (inactive),> 100 µM (inactive),34.8 µM (inactive),> 100 µM (inactive),56.4 µM (inactive),> 100 µM (inactive),59.7 µM (inactive),> 100 µM (inactive),91.4 µM (inactive),37.2 µM (inactive),> 100 µM (inactive),> 100 µM (inactive),> 100 µM (inactive),20.2 µM (inactive),17.2 µM (inactive),31 µM (inactive),55.6 µM (inactive),27.9 µM (inactive),> 100 µM (inactive),> 100 µM (inactive)
CCn1ncc2c(=O)n3ncn(-c4ccc(Br)cc4)c3nc21,> 100 µM (inactive),> 100 µM (inactive),> 100 µM (inactive),> 100 µM (inactive),> 100 µM (inactive),> 100 µM (inactive),> 100 µM (inactive),> 100 µM (inactive),> 100 µM (inactive),> 100 µM (inactive),> 100 µM (inactive),> 100 µM (inactive),> 100 µM (inactive),> 100 µM (inactive),> 100 µM (inactive),> 100 µM (inactive),> 100 µM (inactive),> 100 µM (inactive),> 100 µM (inactive),> 100 µM (inactive)
CN(C)CCCNc1c(C#N)[n+]([O-])c2cc(Cl)ccc2[n+]1[O-],5.48 µM (inactive),17.7 µM (inactive),9.95 µM (inactive),17.7 µM (inactive),9.38 µM (inactive),9.14 µM (inactive),1.71 µM (inactive),5.68 µM (inactive),11.4 µM (inactive),11.7 µM (inactive),5.78 µM (inactive),6.4 µM (inactive),17.3 µM (inactive),4.75 µM (inactive),18.3 µM (inactive),31.9 µM (inactive),3.85 µM (inactive),11.4 µM (inactive),4.84 µM (inactive),5.02 µM (inactive)
COc1cc(/C=C2\CCC/C(=C\c3cc(OC)c(O)c(OC)c3)C2=O)cc(OC)c1O,1.38 µM (inactive),1.79 µM (inactive),1.7 µM (inactive),3.42 µM (inactive),3.12 µM (inactive),3.37 µM (inactive),1.22 µM (inactive),1.07 µM (active),2.79 µM (inactive),1.98 µM (inactive),4.5 µM (inactive),5.33 µM (inactive),1.84 µM (inactive),3.16 µM (inactive),1.81 µM (inactive),9.86 µM (inactive),1.51 µM (inactive),1.8 µM (inactive),9.38 µM (inactive),2.28 µM (inactive)
COc1ccc(N2C(=O)CC(c3c[nH]c4ncccc34)C2=O)cc1 (stereo not given),> 50.9 µM (inactive),14.2 µM (inactive),22.3 µM (inactive),19.3 µM (inactive),27.5 µM (inactive),18.2 µM (inactive),21.3 µM (inactive),20.7 µM (inactive),24.1 µM (inactive),19.7 µM (inactive),37.1 µM (inactive),14.2 µM (inactive),14.4 µM (inactive),22.8 µM (inactive),> 100 µM (inactive),> 100 µM (inactive),22 µM (inactive),> 100 µM (inactive),18.8 µM (inactive),> 100 µM (inactive)
Oc1ccc(Cl)cc1Sc1cc(Cl)ccc1O [FENTICLOR],5.66 µM (inactive),7.24 µM (inactive),18.1 µM (inactive),6.65 µM (inactive),17.3 µM (inactive),16.7 µM (inactive),15.1 µM (inactive),3.75 µM (inactive),5.85 µM (inactive),15 µM (inactive),15.5 µM (inactive),17.1 µM (inactive),10.9 µM (inactive),10 µM (inactive),20.5 µM (inactive),16.2 µM (inactive),6.67 µM (inactive),16.7 µM (inactive),20.7 µM (inactive),3.83 µM (inactive)
C[C@@]12[C@H]3CC[C@@H]1[C@H](O)C(=O)N2CC3,> 100 µM (inactive),> 100 µM (inactive),> 100 µM (inactive),> 100 µM (inactive),> 100 µM (inactive),> 100 µM (inactive),> 100 µM (inactive),> 100 µM (inactive),> 100 µM (inactive),> 100 µM (inactive),> 100 µM (inactive),> 100 µM (inactive),> 100 µM (inactive),> 100 µM (inactive),> 100 µM (inactive),> 100 µM (inactive),> 100 µM (inactive),> 100 µM (inactive),> 100 µM (inactive),> 100 µM (inactive)
CC1=N[C@](C)(C2CC3C=CC2C3=O)COC1=O (stereo not given in full),> 100 µM (inactive),> 100 µM (inactive),> 100 µM (inactive),> 100 µM (inactive),> 100 µM (inactive),> 100 µM (inactive),> 100 µM (inactive),> 100 µM (inactive),> 100 µM (inactive),> 100 µM (inactive),> 100 µM (inactive),> 100 µM (inactive),> 100 µM (inactive),> 100 µM (inactive),> 100 µM (inactive),> 100 µM (inactive),> 100 µM (inactive),> 100 µM (inactive),> 100 µM (inactive),> 100 µM (inactive)

# Source: ChEMBL document CHEMBL1201862, “PubChem BioAssay data set” (2004)
